Measurements taken from patent publication US10383806B2, “Compositions including sesamin, methods of making and using the same in skin anti-aging and skin lightening applications” (Access Business Group International LLC, priority 2015, dated 2019).

Key:
Format in all cases: cell-based
[1] = molecular target: T1, Gal4-PPARγ-LBD fusion protein (Homo sapiens, UniProt P37231); experiment: PPARγ activation luciferase reporter assay (Gal4-PPARγ-LBD, CHO-K1 cells); conditions: 18-24 hours, FIG. 6, n=2
T1 construct: The PPARγ-LBD (residues 203-477) was PCR amplified from human MGC: 5041; expressed in transfected cells
T1 sequence (P37231 203-477 isoform P37231-2): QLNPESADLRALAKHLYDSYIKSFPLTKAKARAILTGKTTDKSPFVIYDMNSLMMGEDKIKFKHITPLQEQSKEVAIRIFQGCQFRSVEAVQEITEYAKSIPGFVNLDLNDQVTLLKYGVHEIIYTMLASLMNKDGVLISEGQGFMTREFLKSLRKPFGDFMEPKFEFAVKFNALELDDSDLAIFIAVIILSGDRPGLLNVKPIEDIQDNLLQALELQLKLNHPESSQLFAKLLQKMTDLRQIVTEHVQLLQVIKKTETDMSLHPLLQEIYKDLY
Method: Troglitazone (positive control) was purchased from Sigma Corp. Sesamin sample was purchased from Virun Chemicals and a stock solution at a concentration of 100 mg/mL was prepared in 70% Dimethyl Sulfoxide (DMSO) and diluted to the indicated concentrations as shown in the figure. The final concentration of DMSO was maintained at 0.05% or lower. Stock solutions of troglitzone and sesamin samples were solubilized and diluted in DMSO prior to dilution in Dubelco's minimum essential media (DMEM) containing 0.5% Bovine serum Albumin (BSA) for testing. To study the activation of PPARγ in a luciferase reporter assay, a Gal4-PPARγ-ligand-binding domain (LBD) vector was created in a modified pF[…] (BIND) vector (Promega Inc). The PPARγ-LBD (residues 203-477) was PCR amplified from human MGC: 5041 (pSPORT6; Open Biosystems Inc.) and ligated into the pBIND3 vector forming a Gal4-PPARγ-LBD fusion protein. […] Luciferase was quantified using an activity assay from Biotium Inc. Briefly, at time of analysis, cells in white-walled 96-well plates were rinsed once using 50 μL of DPBS, then lysed with 20 μL of 1× passive lysis buffer. […] Reconstituted, room temperature D-luciferin was added (100 μL per well) and light emission was immediately read using an M-5 spectrophotometer (Molecular Devices, Inc.).

Melan-a cells = experiment: Melanin inhibition assay in Melan-a cells; conditions: 4 days, concentrations of FIG. 5
Method: Melan-a cells seeded at a density of 5×10^4 cells per well were grown in a 24 well plate. Sesamin complex (S1) (at the concentrations indicated in the legend of FIG. 5) was dissolved in (DMSO) such that the final concentration of DMSO in the culture medium was maintained at 0.05%. Sesamin complex and Phenylthiourea (PTU) was added to the cells in triplicate and incubated for 2 days following which the cells were again treated with compounds supplemented with fresh medium. PTU at a concentration of 60 ug/ml was used as a positive inhibitor control in the melanin inhibition assay. Two days later, melanin was extracted and quantitated by normalizing with the protein content. After 4 days, melanin was extracted and cleared of the cell debris from each of the wells were dissolved by treating with 2N NaOH in 20% DMSO and incubating the samples for 60 min at 55° C. The melanin content in each sample was determined by measuring absorbance at 490 nm. Data were presented as % melanin content normalized to protein content in untreated wells compared to % melanin content extracted from samples.

[2] = test system: antioxidant response elements; experiment: Anti-oxidant response element (ARE) luciferase reporter assay in stable HepG2 cells; conditions: 48 hours, FIG. 4
From the text: Yet other embodiments relate to a method of decreasing a skin anti-inflammatory response comprising applying to the skin a composition in a cosmetically effective amount sufficient to decrease the skin anti-inflammatory response, wherein the composition comprises an amount of sesamin, individually or in combination with at least one other plant ingredient or plant extract from Pistacia (e.g., Pistacia lentiscus), Leontopodium (e.g., Leontopodium alpinium), Spirulina (e.g., Spirulina platensis), Oroxylum (e.g., Oroxylum indicum), Schizandra (e.g., Schizandra chinesis), Moringa (e.g., Moringa pterygosperma), Houttuynia (e.g., Houttuynia cordata), Isodon (e.g., Isodon japonicus), and Saxifraga (e.g., Saxifraga stolonifera), or mixtures thereof, and at least one pharmaceutically or cosmetically acceptable vehicle. […] Use of compositions that are capable of decreasing a skin anti-inflammatory response in the skin may result in improvement of the appearance of skin or at least one sign of aging in skin. Sesamin complex was dissolved in 70% DMSO and finally diluted […] in MEM containing Myrosinase (0.625 U/mL) and Ascorbic Acid (350 uM) and the final concentration of DMSO was 0.14%. […] The cells were grown in minimum essential media (MEM) with 10% fetal bovine serum and 150 ug/mL of hygromycin in a humidified atmosphere containing 5% CO2 at 37 C. For the assay, the cells were seeded at a density of 31,250 cells per well in a 96-well, white-walled, collagen coated plate. The following day, the media was removed and fresh growth media was added. After 24 hours, the cells were treated with test compounds for 48 hours (100 ug/mL, 50 ug/mL, 25 ug/mL, 12.5 ug/mL, and […]), lysed and the amount of luciferase produced was measured using a luciferase activity assay. Data were captured as relative luminescence units (RLUs) using an M5 Spectrophotometer (Molecular Devices, Inc).

c1cc2c(cc1[C@H]1OC[C@H]3[C@@H]1CO[C@@H]3c1ccc3c(c1)OCO3)OCO2 [sesamin]
activation of PPARγ (percent of control response) ([1]; sesamin at 70% (μg/mL)): dose-dependent activation of PPARγ | activation of PPARγ (percent of control response) ([1]; sesamin at 90% (μg/mL)): dose-dependent activation of PPARγ | melanin inhibition (% melanin content normalized to protein content) (Melan-a cells): dose dependent melanin inhibition | anti-oxidant response (% Response) ([2]; 50 ug/mL, second highest response): activation of anti-oxidant pathways | anti-oxidant response (% Response) ([2]; 100 ug/mL): highest anti-oxidant response | anti-oxidant response (% Response, luciferase RLU normalized to untreated 0% and sulforophane 100%) ([2]; HepG2 ARE-luciferase cells, 6.75-100 ug/mL): dose-dependent anti-oxidant response
